In paper PMC7618597, “Dual Nurr1/RXR agonism of valerenic acid and synthetic mimetics enables dimer-selective Nurr1 modulation” (ACS medicinal chemistry letters, 2025):

What was measured:
RXRα = target: T1, RXRα (Homo sapiens, UniProt P19793); experiment: Gal4-hybrid reporter gene assay, RXRα; format: cell-based; conditions: Gal4-hybrid reporter gene assay; for EC50: mean±S.E.M., n≥3
T1 construct: pFA-CMV-hRXRα-LBD; expressed in transfected cells; host or cells: HEK293T
T1 sequence (P19793 227-458 limits assumed): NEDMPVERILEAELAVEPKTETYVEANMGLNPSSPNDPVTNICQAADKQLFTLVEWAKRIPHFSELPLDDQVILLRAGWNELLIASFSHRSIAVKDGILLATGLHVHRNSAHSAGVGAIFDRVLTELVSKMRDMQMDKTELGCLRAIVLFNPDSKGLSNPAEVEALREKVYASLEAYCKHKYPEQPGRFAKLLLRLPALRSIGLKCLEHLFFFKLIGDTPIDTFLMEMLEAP
Method: modified Eagle’s medium (DMEM), high glucose supplemented with 10% fetal calf serum (FCS), sodium pyruvate (1 mM), penicillin (100 U/mL), and streptomycin (100 μg/mL) at 37 °C and 5% CO2 and seeded in 96-well plates (3×10^4 cells/well). After 24 h, the medium was changed to Opti-MEM without supplements, and the cells were transiently transfected using Lipofectamine LTX reagent (Invitrogen) according to the manufacturer’s protocol. Five hours after transfection, the cells were incubated with the test compounds in Opti-MEM supplemented with penicillin (100 U/mL), streptomycin (100 μg/mL), and 0.1% DMSO for 15 h before luciferase activity was measured using the Dual -Glo Luciferase Assay System (Promega) according to the manufacturer’s protocol on a Tecan Spark l uminometer (Tecan Deutschland GmbH, Germany). Firefly luminescence was divided by Renilla luminescence and multiplied by 1000, resulting in relative light units (RLU) to normalize for transfection efficiency and cell growth. Fold activation was obtained by dividing the mean RLU of a sample by the mean RLU of the untreated control. All samples were tested in at least three biologically independent experiments in duplicates. For dose –response curve fitting and calculation of EC50 values, the equation “[Agonist] vs. response – Variable slope (four parameters)” was used in GraphPad Prism (version 5.04, GraphPad Software, La Jolla, CA, USA). […] (10 μM, NR4A) and bexarotene (1 µM, NR2B) served as the positive control. […]
150 μM in the same buffer containing 2-4% DMSO) in 21–26 injections (1 × 1 μL and 20 × 4 to 25 × 4 μL) with an injection interval of 120 s. As control experiments, the test compounds were titrated to the buffer, and the buffer was titrated to the protein under otherwise identical conditions. The heat rates of the compound-Nurr1 LBD titrations were analyzed using NanoAnalyze software (TA Instruments, New Castle, DE) with an independent binding model.

Nurr1:RXR heterodimer = Nurr1:RXR heterodimer (Homo sapiens, UniProt P19793+P43354); experiment: Nurr1 LBD:RXRα LBD heterodimerization assay (HTRF); format: biochemical; conditions: 30 μM, Tb3+-cryptate Nurr1 LBD and sGFP-RXRα LBD
Sequence of Nurr1:RXR heterodimer (P43354 360-595 limits assumed, one chain of several): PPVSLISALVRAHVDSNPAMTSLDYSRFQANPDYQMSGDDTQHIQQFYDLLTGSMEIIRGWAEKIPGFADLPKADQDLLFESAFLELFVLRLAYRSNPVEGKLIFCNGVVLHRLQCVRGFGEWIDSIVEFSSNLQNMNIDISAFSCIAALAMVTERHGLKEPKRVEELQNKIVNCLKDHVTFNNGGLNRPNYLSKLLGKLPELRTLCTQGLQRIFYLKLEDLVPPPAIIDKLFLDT
Method: To determine the molecular response of the Nurr1:RXR heterodimer on dual agonist binding, we employed homogenous time-resolved fluorescence resonance energy transfer (HTRF) based assays with labeled Nurr1 and RXR LBD proteins. Tb^3+-cryptate as streptavidin conjugate served as FRET donor and was coupled to biotinylated proteins. sGFP fusion proteins of the receptors of interest were used as FRET acceptors. Ligand effects on dimer formation were determined by titrating the sGFP-labeled dimer partner with a fixed concentration of the Tb^3+-labeled counterpart. […] The same effect was also observable for the natural product 1 (Figure S3).
Nurr1 dimerization assays (HTRF). Modulation of Nurr1 LBD homodimerization and heterodimerization of the LDBs of Nurr1 and RXRα was investigated by HTRF as reported previously4. Nurr1 LBD or RXRα LBD proteins labeled with sGFP were titrated against a fixed concentration of Tb3+-cryptate as streptavidin conjugate (Tb-SA) (610SATLF, Revvity) coupled to biotinylated Nurr1 LBD protein in the presence of test compounds at 30 µM or absence of compound as a negative control (apo). Assay solutions were prepared in buffer containing 25 mM HEPES pH 7.5, 150 mM KF, 5% (m/v) glycerol, 5 mM DTT, 0.1% (m/v) CHAPS and 1%
DMSO. The FRET donor complex was formed from biotinylated Nurr1 LBD (final concentration 0.188 nM) and Tb-SA (0.375 nM) and was kept constant. For the homodimerization assay, the FRET acceptor consisted of sGFP-Nurr1 LBD, which was titrated from 0.5 µM, while free sGFP was added to keep the total GFP content stable at 0.5 µM. […] Samples were equilibrated at room temperature for 2 h and fluorescence intensities (FI) after excitation at 340 nm were recorded at 520 nm for sGFP acceptor fluorescence and at 620 for Tb-SA donor fluorescence on a SPARK plate reader (Tecan Group Ltd.). […]
Evaluation of Nurr1-regulated gene expression. […] RNA concentration and purity were assessed using a NanoDrop One UV-vis spectrophotometer (Thermo Fisher Scientific) at 260/280 nm. […]

SMILES: Cc1c2c(n(-c3ccc(CC(=O)O)cc3)c1C)CCC(F)(F)C2 [compound 2]
- max. act. (RXR) α (RXRα): 69±1 fold
- EC50 (RXRα): 970 nM
- Nurr1:RXR heterodimer formation (Nurr1:RXR heterodimer): left the dimer intact

SMILES: Cc1c(C)n(-c2ccc(CC(=O)O)cc2)c2ccc(F)cc12 [compound 3]
- max. act. (RXR) α (RXRα): 83±9 fold
- EC50 (RXRα): 400 nM
- Nurr1:RXR heterodimer formation (Nurr1:RXR heterodimer): left the dimer intact
